Test results taken from paper PMC7692337, “Masked Phenolic-Selenium Conjugates: Potent and Selective Antiproliferative Agents Overcoming P-gp Resistance” (Pharmaceuticals, 2020).
Entries after “also recorded” stand apart in the source; their conditions may differ. Where two headings read alike, the source gives them in different places.

Assays:
[1] = H2O2 scavenging (phenol red / horseradish peroxidase); conditions: At 50 µM
Procedure: (§1) In vitro antioxidant properties of key unprotected phenolic derivatives were analyzed using two different methodologies: free radical scavenging capacity, using the DPPH method (2,2-diphenyl-1-picrylhydrazyl), a HAT (hydrogen atom transfer) procedure, widely-used for both natural and synthetic derivatives, and also the capacity for scavenging H2O2, one of the most common ROS in degenerative diseases, including cancer.
Herein, following Bahorun’s methodology, in vitro levels of H2O2 were measured in an indirect fashion, by registering the H2O2-mediated oxidation of phenol red in the presence of horseradish peroxidase, to give a chromophore with a maximum absorption at 610 nm. Accordingly, in the presence of an antioxidant agent, there is an inverse correlation between the observed absorbance, and the scavenging properties. Table 2 depicts the H2O2-scavenging properties of compounds prepared herein, and tested at a final 50 µM concentration.
Reported methodology was used with minor modifications.

[2] = Free radical scavenging (DPPH method); conditions: 30 min incubation, absorbance at 515 nm, read-out: EC50 antiradical activity (DPPH)
Procedure: as §1
DPPH is a commercially-available stable free radical commonly used for in vitro testing of radical scavenging properties of antioxidants.
Reported methodology was used with minor modifications. To a 60 µM methanolic DPPH solution (1.17 mL), the antioxidant solution (5–7 different solutions, 30 µL) or solvent (control, 30 µL) were added. After 30 min. of incubation in the dark, absorbance was measured at 515 nm, and EC50 values were calculated.

[3] = tested on: A549 (non-small cell lung); test: Antiproliferative activity, NCI protocol; format: cell-based, human
Procedure: (§2) Organochalcogen derivatives prepared herein were evaluated in vitro as potential antiproliferative agents, using a panel of six human tumour cell lines: A549 (non-small cell lung), HBL-100 (breast), HeLa (cervix), SW1573 (non-small cell lung), as drug sensitive lines, T-47D (breast) and WiDr (colon) as drug resistant lines. In addition to precursors 2, 6, 7, 13, 14, 17, 19, ebselen and cisplatin (CDDP) were used as reference drugs. […] In both cases, the NCI protocol, with minor modifications, was followed; selected data, including the selectivity index (S.I.) can be found in Table 3 and full data in Supporting Information (Table S1).
(§3) The in vitro antiproliferative activity was assayed using minor modifications of the protocol of the National Cancer Institute (NCI) of the United States against the six human solid tumor cell and the non-tumor cell lines tested.

[4] = tested on: SW1573 (non-small cell lung); test: Antiproliferative activity, NCI protocol; format: cell-based, human
Procedure: as §2, §3

HeLa (cervix) = test: Antiproliferative activity, NCI protocol; format: cell-based, human
Procedure: as §2, §3

T-47D (breast) = test: Antiproliferative activity, NCI protocol; format: cell-based, human; conditions: for GI50: read-out: GI50 T-47D (Breast)
Procedure: as §2, §3

HBL-100 (breast) = test: Antiproliferative activity, NCI protocol; format: cell-based, human
Procedure: as §2, §3

WiDr (colon) = test: Antiproliferative activity, NCI protocol; format: cell-based, human; conditions: for GI50: read-out: GI50 WiDr (Colon)
Procedure: as §2, §3

BJ-hTert (fibroblasts) = test: Antiproliferative activity on non-tumour cells, NCI protocol; format: cell-based, human; conditions: non-tumour cell line; for GI50: read-out: GI50 BJ-hTert (Fibroblasts)
Procedure: as §2, §3

SW1573/Pgp = test: P-glycoprotein assay, line overexpressing P-gp; format: cell-based, human; conditions: ratio between GI50 values in SW1573/PGP and SW1573 cells; for Rf w Verapamil: with verapamil; for Rf w/o Verapamil: without verapamil
Procedure: (§4) This assay allows prediction of whether a certain chemotherapeutic agent could develop chemoresistance when behaving as a P-gp substrate, one of the most common efllux-pumps used for the extrusion of cell xenobiotics. For that purpose, a cell line-based assay was used, in particular the lung cancer cell line in its wild type (SW1573), and its variant overexpressing P-gp (Sw1573/Pgp). Moreover, compounds were tested in the presence and in the absence of verapamil, which is known to inhibit P-gp. Chemotherapeutic agents paclitaxel (PTX) and vinblastine (VB) are used herein as reference compounds. In this assay, the resistance factor (Rf) for a certain compound is defined as the ratio of GI50 in the cell line overexpressing P-gp and the wild one (Table 4), high values of Rf denoting that the compound behaves as a P-gp substrate, and thus, chemoresistance through this mechanism will probably take place.

[5] = P-glycoprotein assay, line overexpressing P-gp; format: cell-based, human; conditions: human, 48 h exposure
Procedure: as §4

[6] = tested on: six human tumour cell lines (A549, HBL-100, HeLa, SW1573, T-47D, WiDr); test: Antiproliferative activity, panel of six human tumour cell lines; format: cell-based; conditions: summary over the tested tumour cell lines, highest tested concentration 100 µM
Procedure: as §2, §3

SW1573 = test: P-glycoprotein assay, wild type line; format: cell-based; conditions: Homo sapiens, 48 h exposure
Procedure: as §4

[7] = Homo sapiens, A549; read-out: GI50 A549 (Lung)
[8] = Homo sapiens, SW1573, Table S1, read-out: GI50 SW1573 (Lung)
[9] = Homo sapiens, HeLa; read-out: GI50 HeLa (Cervix)
[10] = Homo sapiens, T47D, drug resistant line
[11] = Homo sapiens, HBL-100; read-out: GI50 HBL-100 (Breast)
[12] = Homo sapiens, WiDr, drug resistant line
[13] = Table S1, read-out: GI50 SW1573 (Lung)
[14] = read-out: GI50 HBL-100 (Breast)
[15] = with verapamil (concentration not stated), with verapamil, read-out: GI50 SW1573/PGP w Verapamil
[16] = without verapamil, read-out: GI50 SW1573/PGP w/o Verapamil
[17] = with verapamil, read-out: GI50 SW153 w Verapamil
[18] = without verapamil, read-out: GI50 SW1573 w/o Verapamil

Compound	% Scavenging of H2O2 [1]	EC50 [2] [µM]	GI50 [3, 7] [µM]	GI50 [4, 8] [µM]	GI50 (HeLa (cervix); [9]) [µM]	GI50 (T-47D (breast); [10]) [µM]	GI50 (HBL-100 (breast); [11]) [µM]	GI50 (WiDr (colon); [12]) [µM]	GI50 over the tumour cell lines (range, bound or words) [6]	other results
O=C1CCCSSCCCC(=O)Oc2cc(CCO)ccc2O1 [Compound 4, [4”-(2”‘-Hydroxyethyl)-1”,2”-phenylene]-4,4’-dithiobisbutyrate]	complete loss of ROS scavenging properties; also recorded: --- ^2	> 175	> 100	> 100	> 100	> 100	> 100	> 100	–	–
[NH2][Pt]([NH2])([Cl])[Cl] [CDDP, cisplatin, reference compound]	–	–	–	–	–	–	–	–	–	GI50 (BJ-hTert (fibroblasts)): 14 ± 2 µM; GI50 ([3]; read-out: GI50 A549 (Lung)): 4.9 ± 0.2 µM; GI50 [4, 13]: 3.4 ± 0.7 µM; GI50 (HeLa (cervix); read-out: GI50 HeLa (Cervix)): 2 ± 0.3 µM; GI50 (T-47D (breast); drug resistant line): 15 ± 2 µM; GI50 (HBL-100 (breast); [14]): 1.9 ± 0.2 µM; GI50 (WiDr (colon); drug resistant line): 26 ± 6 µM
NCCc1ccc(O)c(O)c1 [Dopamine, dopamine, reference compound]	46.1 ± 4.6%	11.4 ± 1.2	–	–	–	–	–	–	–	–
N#C[Se]CCCC(=O)NCCc1ccc2c(c1)OCO2 [Compound 45, N-[2′-(3′,4′-Methylenedioxyphenyl)ethyl]-4-selenocyanatobutanamide]	–	–	0.41 ± 0.03	0.81 ± 0.02	0.36 ± 0.09	0.4 ± 0.04	1.6 ± 0.3	0.41 ± 0.03	–	Rf w Verapamil (SW1573/Pgp): 2.3; Rf w/o Verapamil (SW1573/Pgp): 3.1; GI50 at 48 h [5, 15]: 2.5 ± 0.1 µM; GI50 at 48 h [5, 16]: 3.3 ± 0.6 µM; GI50 (BJ-hTert (fibroblasts); Homo sapiens, Fibroblast): 1.8 ± 0.7 µM; GI50 ([6]; Homo sapiens, read-out: GI50 over the tumour cell lines (range, bound or words)): 0.36 to 1.6 µM; GI50 (SW1573; [17]): 1.1 ± 0.1 µM; GI50 (SW1573; [18]): 1.1 ± 0.2 µM
O=C(CCCSSCCCC(=O)NCCc1ccc(O)c(O)c1)NCCc1ccc(O)c(O)c1 [Compound 10]	11.8 ± 0.5%	15.3 ± 0.1	> 100	> 100	> 100	> 100	> 100	> 100	negligible activities	–
O=C(CSSCC(=O)NCCc1ccc(O)c(O)c1)NCCc1ccc(O)c(O)c1 [Compound 8, 2,2′-Dithiobis{N-[2′’-(3′’’,4′’’-dihydroxyphenyl)ethyl]acetamide}]	26.5 ± 2.1%	12.3 ± 0.5	> 100	> 100	> 100	> 100	> 100	> 100	negligible activities	–
N#C[Se]CCC(=O)NCCc1ccc(O)c(O)c1 [Compound 20, N-[2′-(3′’,4′’-Dihydroxyphenyl)ethyl]-3-selenocyanatopropanamide]	25.8 ± 1.0%	10.8 ± 0.4	–	–	–	–	–	–	moderate antiproliferative properties	GI50 ([3]; Homo sapiens, A549, read-out: GI50 A549 (Lung)): 28 ± 8 µM; GI50 ([4]; Homo sapiens, SW1573, read-out: GI50 SW1573 (Lung)): 24 ± 8 µM; GI50 (HeLa (cervix); Homo sapiens, HeLa, read-out: GI50 HeLa (Cervix)): 19 ± 8 µM; GI50 (T-47D (breast); Homo sapiens, T47D): 35 ± 1 µM; GI50 (HBL-100 (breast); Homo sapiens, HBL-100, read-out: GI50 HBL-100 (Breast)): 37 ± 2 µM; GI50 (WiDr (colon); Homo sapiens, WiDr): 41 ± 10 µM
c1cc2c(cc1CC[Se][Se]CCc1ccc3c(c1)OCO3)OCO2 [Compound 40, Bis[2-(3′,4′-methylenedioxyphenyl)ethyl]diselenide]	–	–	1.6 ± 0.5	2.7 ± 0.3	0.95 ± 0.07	0.88 ± 0.17	2 ± 0.9	1.2 ± 0.1	low micromolar‒submicromolar activities	Rf w Verapamil (SW1573/Pgp): 2.5; Rf w/o Verapamil (SW1573/Pgp): 2.0; GI50 at 48 h [5, 15]: 4.5 ± 1 µM; GI50 at 48 h [5, 16]: 3.9 ± 0.2 µM; GI50 (BJ-hTert (fibroblasts); Homo sapiens, Fibroblast): 28 ± 5 µM; GI50 (SW1573; [17]): 1.8 ± 0.2 µM; GI50 (SW1573; [18]): 1.9 ± 0.1 µM
O=C(CC[Se][Se]CCC(=O)NCCc1ccc(O)c(O)c1)NCCc1ccc(O)c(O)c1 [Compound 15, 3,3′-Diselenobis{N-[2′’-(3′’’,4′’’-dihydroxyphenyl)ethyl]propanamide}]	40.0 ± 3.1%	7.8 ± 0.2	5.4 ± 1.1	5.9 ± 1.3	3.6 ± 1.1	39 ± 5	29 ± 6	31 ± 7	–	Rf w Verapamil (SW1573/Pgp): 1.1; Rf w/o Verapamil (SW1573/Pgp): 1.5; GI50 at 48 h [5, 15]: 5.3 ± 0.3 µM; GI50 at 48 h [5, 16]: 5 ± 0.1 µM; GI50 (SW1573; [17]): 5 ± 0.7 µM; GI50 (SW1573; [18]): 3.3 ± 0.4 µM
N-[2′-(3′’,4′’-Dihydroxyphenyl)ethyl]-3-phenylselenopropanamide [Compound 18]	19.0 ± 0.8%	23.2 ± 0.6	–	–	–	–	–	–	moderate antiproliferative properties	GI50 ([3]; read-out: GI50 A549 (Lung)): 33 ± 5 µM; GI50 [4, 13]: 28 ± 4 µM; GI50 (HeLa (cervix); read-out: GI50 HeLa (Cervix)): 23 ± 1 µM; GI50 (T-47D (breast); drug resistant line): 71 ± 5 µM; GI50 (HBL-100 (breast); [14]): 34 ± 1 µM; GI50 (WiDr (colon); drug resistant line): 85 ± 21 µM
N#C[Se]CCCc1ccc2c(c1)OCO2 [Compound 37, 3-(3’,4’-Methylenedioxyphenyl)propyl selenocyanate]	–	–	–	–	–	–	–	–	–	GI50 BJ-hTert (Fibroblasts) (BJ-hTert (fibroblasts)): Not soluble; GI50 A549 (Lung) [3]: Not soluble; GI50 HeLa (Cervix) (HeLa (cervix)): Not soluble; GI50 T-47D (Breast) (T-47D (breast); drug resistant line): Not soluble; GI50 HBL-100 (Breast) (HBL-100 (breast)): Not soluble; GI50 WiDr (Colon) (WiDr (colon); drug resistant line): Not soluble
